Laboratory results: ChEMBL document CHEMBL1140582, “Development of CXCR3 antagonists. Part 2: Identification of 2-amino(4-piperidinyl)azoles as potent CXCR3 antagonists” (Bioorg Med Chem Lett, 2007)
pKi: −log10 of the molar value. In brackets after ≈: the same amount, converted by molar mass.

What was measured:
[1] = Intrinsic clearance in mouse microsomes at 0.5 uM; type: ADME, Microsome
[2] = Partition coefficient, log D at pH 7.4; conditions: octanol/water
Cytochrome P450 2D6 = Cytochrome P450 2D6 (Homo sapiens, UniProt P10635); assay: Inhibition of CYP2D6; type: ADME
[3] = target: T1, C-X-C chemokine receptor type 3 (Homo sapiens, UniProt P49682); assay: Binding affinity to human CXCR3 receptor expressed in CHO membrane by ITAC-stimulated GTP gammaS assay; type: cell membranes
T1 sequence (P49682 whole entry): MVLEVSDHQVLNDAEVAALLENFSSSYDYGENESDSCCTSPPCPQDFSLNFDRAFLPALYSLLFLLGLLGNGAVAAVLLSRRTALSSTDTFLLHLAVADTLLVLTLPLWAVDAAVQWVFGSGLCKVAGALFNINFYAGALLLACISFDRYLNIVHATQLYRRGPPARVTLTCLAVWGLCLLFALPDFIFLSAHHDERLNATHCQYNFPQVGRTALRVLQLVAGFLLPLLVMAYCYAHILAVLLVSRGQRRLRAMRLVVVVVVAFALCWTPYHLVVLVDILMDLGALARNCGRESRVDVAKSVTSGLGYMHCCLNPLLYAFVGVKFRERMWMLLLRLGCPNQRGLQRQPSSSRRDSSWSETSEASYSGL

[4] = Clearance in mouse plasma at 10 mg/kg, po; type: ADME, organism-based; set-up: dose 10 mg/kg, route oral
[5] = Cmax in mouse; type: ADME, organism-based; conditions: in vivo
Homo sapiens = organism: Homo sapiens; assay: Protein binding in human plasma; conditions: read-out: PPB (converted)
[6] = Half life in mouse at 10 mg/kg, po; type: ADME, organism-based; set-up: dose 10 mg/kg, route oral; conditions: in vivo
[7] = AUC in mouse; type: ADME, organism-based; conditions: plasma
[8] = Solubility of the compound; type: physicochemical
CYP2D6 = CYP2D6 (Homo sapiens, UniProt P10635); assay: Inhibition of CYP2D6 at 50 uM; type: ADME
[9] = target: T2, C-X-C chemokine receptor type 3 (Homo sapiens) (UniProt P49682); assay: Inhibition of human CXCR3 expressed in CHO membrane at 10 uM by ITAC-stimulated GTP gammaS assay; type: cell membranes
T2 sequence (whole entry): T1 sequence (P49682 whole entry)

Cytochrome P450 2D6, sequence (P10635 whole entry): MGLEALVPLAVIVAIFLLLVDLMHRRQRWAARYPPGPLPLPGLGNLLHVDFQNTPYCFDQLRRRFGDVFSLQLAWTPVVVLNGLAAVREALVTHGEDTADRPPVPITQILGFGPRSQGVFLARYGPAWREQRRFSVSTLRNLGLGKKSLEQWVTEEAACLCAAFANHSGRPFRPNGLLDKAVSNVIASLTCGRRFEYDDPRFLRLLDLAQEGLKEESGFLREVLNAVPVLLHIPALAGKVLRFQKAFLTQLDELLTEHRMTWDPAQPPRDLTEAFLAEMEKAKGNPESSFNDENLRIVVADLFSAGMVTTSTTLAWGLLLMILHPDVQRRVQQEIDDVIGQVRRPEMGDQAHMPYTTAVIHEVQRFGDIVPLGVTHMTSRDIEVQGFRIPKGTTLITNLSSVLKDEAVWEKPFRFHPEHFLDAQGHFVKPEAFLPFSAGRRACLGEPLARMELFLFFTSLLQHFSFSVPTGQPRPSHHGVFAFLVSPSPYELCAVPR
CYP2D6, sequence (P10635 whole entry): as above

Row | clearance [1] [µL/min/mg] | logD [2] | pKi [3] | Structure (SMILES) | also measured
1 | 16 | 5 | 6.57 | CC1(C)[C@H]2CC=C(CN3CCC(Nc4nc(-c5cc(C(F)(F)F)cc(C(F)(F)F)c5)ns4)CC3)[C@@H]1C2 | CL/F [4]: 2.8 mL/min/kg; Cmax [5]: 2010 ng/mL; Activity (Cytochrome P450 2D6): 15 µM; fraction unbound (Homo sapiens): 0.003; half-life [6]: 5.4 h; AUC [7]: 10800 ng·h/mL; solubility [8]: 2.7 µg/mL (≈ 5.09 µM)
2 |  |  | 6.17 | CC1(C)[C@H]2CC=C(CN3CCC(Nc4nc5ccccc5o4)CC3)[C@@H]1C2 | 
3 | 34 | > 5 | 6.59 | CC1(C)[C@H]2CC=C(CN3CCC(Nc4nc(-c5cc(C(F)(F)F)cc(C(F)(F)F)c5)cs4)CC3)[C@@H]1C2 | inhibition at 50 µM (CYP2D6): < 20%
4 | 150 | > 5 | 6.89 | CC1(C)[C@H]2CC=C(CN3CCC(Nc4nc5ccc(Br)cc5s4)CC3)[C@@H]1C2 | Activity (Cytochrome P450 2D6): 0.7 µM
5 |  |  | 5.46 | CCc1cccc(N(C)C(=O)NC2CCN(CC3=CC[C@H]4C[C@@H]3C4(C)C)CC2)c1 | 
6 |  | > 5 | 6.34 | CC1(C)[C@H]2CC=C(CN3CCC(Nc4nc(-c5ccc(Cl)c(Cl)c5)cs4)CC3)[C@@H]1C2 | inhibition at 50 µM (CYP2D6): < 20%
7 |  | 4.7 | 6.06 | CC1(C)[C@H]2CC=C(CN3CCC(Nc4nc(-c5ccccc5)cs4)CC3)[C@@H]1C2 | inhibition at 50 µM (CYP2D6): < 20%
8 | 1 | > 5 | 6.46 | CC1(C)[C@H]2CC=C(CN3CCC(Nc4nc5ccccc5s4)CC3)[C@@H]1C2 | Activity (Cytochrome P450 2D6): 13 µM
9 | 140 | > 5 | 6.82 | CC1(C)[C@H]2CC=C(CN3CCC(Nc4nc5c(Br)cccc5s4)CC3)[C@@H]1C2 | Activity (Cytochrome P450 2D6): 1.2 µM

More lines, now with the values behind:

Row | Structure (SMILES) | clearance [1] [µL/min/mg] | logD [2] | pKi [3] | also measured
10 | CN(c1nc2ccc(Cl)cc2s1)C1CCN(CC2=CC[C@H]3C[C@@H]2C3(C)C)CC1 | 48 | 5 | 6.77 | Activity (Cytochrome P450 2D6): 7.3 µM
11 | CC1(C)[C@H]2CC=C(CN3CCC(N4CC(=O)N(c5cc(C(F)(F)F)cc(C(F)(F)F)c5)C4=O)CC3)[C@@H]1C2 | 220 | > 5.5 | 7.59 | 
12 | CC1(C)[C@H]2CC=C(CN3CCC(N4CC(=O)N(c5cccc(C(F)(F)F)c5)C4=O)CC3)[C@@H]1C2 | 318 | 4.6 | 6.66 | 
13 | CN(C(=O)Nc1cccc(C(F)(F)F)c1)C1CCN(CC2=CC[C@H]3C[C@@H]2C3(C)C)CC1 |  |  | 6.74 | 
14 | CN(c1nc2cc(Cl)ccc2s1)C1CCN(CC2=CC[C@H]3C[C@@H]2C3(C)C)CC1 | 41 | 5 | 6.54 | Activity (Cytochrome P450 2D6): 3.5 µM
15 | CN(c1nc2cccc(Cl)c2s1)C1CCN(CC2=CC[C@H]3C[C@@H]2C3(C)C)CC1 |  | > 5 | 6.21 | Activity (Cytochrome P450 2D6): 4.1 µM
16 | CN(c1nc2c(Cl)cccc2s1)C1CCN(CC2=CC[C@H]3C[C@@H]2C3(C)C)CC1 |  | 5 | 6.34 | 
17 | CN(c1nc2ccccc2s1)C1CCN(CC2=CC[C@H]3C[C@@H]2C3(C)C)CC1 | 78 | > 5 | 6.85 | Activity (Cytochrome P450 2D6): 2.2 µM
18 | CC1(C)[C@H]2CC=C(CN3CCC(N(Cc4ccccc4)C(=O)Nc4cccc(C(F)(F)F)c4)CC3)[C@@H]1C2 |  |  |  | inhibition [9]: < 20%
19 | CN(c1nc2ccccc2o1)C1CCN(CC2=CC[C@H]3C[C@@H]2C3(C)C)CC1 |  | 4.6 | 6.14 | 
20 | CC1(C)[C@H]2CC=C(CN3CCC(N4CC(=O)N(c5ccc(Cl)c(C(F)(F)F)c5)C4=O)CC3)[C@@H]1C2 | 280 | 5.3 | 6.92 | 
21 | CC(=O)c1cccc(N2C(=O)CN(C3CCN(CC4=CC[C@H]5C[C@@H]4C5(C)C)CC3)C2=O)c1 |  | 3.4 |  | inhibition [9]: < 20%
22 | CN(c1nc2ccccc2[nH]1)C1CCN(CC2=CC[C@H]3C[C@@H]2C3(C)C)CC1 |  | 4.2 | 6.02 | 
23 | CCc1cccc(N2C(=O)CN(C3CCN(CC4=CC[C@H]5C[C@@H]4C5(C)C)CC3)C2=O)c1 | 190 | 4.7 | 6.42 | 
24 | CC1(C)[C@H]2CC=C(CN3CCC(N4CCN(c5cc(F)cc(C(F)(F)F)c5)C4=O)CC3)[C@@H]1C2 | 88 | 4.6 | 6.70 | 
25 | CC1(C)[C@H]2CC=C(CN3CCC(N4CCN(c5cc(C(F)(F)F)cc(C(F)(F)F)c5)C4=O)CC3)[C@@H]1C2 | 7 | > 5.5 | 6.77 | 
26 | CSc1cccc(N2C(=O)CN(C3CCN(CC4=CC[C@H]5C[C@@H]4C5(C)C)CC3)C2=O)c1 | 230 | 5 | 6.12 | 
27 | CCN(C(=O)Nc1cccc(C(F)(F)F)c1)C1CCN(CC2=CC[C@H]3C[C@@H]2C3(C)C)CC1 |  |  | 5.44 | 
28 | CC1(C)[C@H]2CC=C(CN3CCC(N4CC(=O)N(c5cc(F)cc(C(F)(F)F)c5)C4=O)CC3)[C@@H]1C2 | 290 | 4.85 | 7.00 | 
